Laboratory results taken from ChEMBL document CHEMBL1240439, “Synthesis and docking studies of novel benzopyran-2-ones with anticancer activity” (2010).
Active and inactive are the calls of the source.

Legend:
Type in all cases: functional
SK-OV-3 = experiment: Cytotoxicity against human SKOV3 cells assessed as cell growth at 10 uM after 48 hrs by sulforhodamine B assay
U-251 = experiment: Cytotoxicity against human U251 cells assessed as cell growth at 10 uM after 48 hrs by sulforhodamine B assay
COLO 205 = experiment: Cytotoxicity against human COLO205 cells assessed as cell growth at 10 uM after 48 hrs by sulforhodamine B assay
SF-268 = experiment: Cytotoxicity against human SF268 cells assessed as cell growth at 10 uM after 48 hrs by sulforhodamine B assay
Malme-3M = experiment: Cytotoxicity against human MALME-3M cells assessed as cell growth at 10 uM after 48 hrs by sulforhodamine B assay
HOP-92 = experiment: Cytotoxicity against human HOP92 cells assessed as cell growth at 10 uM after 48 hrs by sulforhodamine B assay
NCI-H522 = experiment: Cytotoxicity against human NCI-H522 cells assessed as cell growth at 10 uM after 48 hrs by sulforhodamine B assay
SK-MEL-28 = experiment: Cytotoxicity against human SK-MEL-28 cells assessed as cell growth at 10 uM after 48 hrs by sulforhodamine B assay
BT-549 = experiment: Cytotoxicity against human BT549 cells assessed as cell growth at 10 uM after 48 hrs by sulforhodamine B assay
SK-MEL-5 = experiment: Cytotoxicity against human SK-MEL-5 cells assessed as cell growth at 10 uM after 48 hrs by sulforhodamine B assay
IGROV-1 = experiment: Cytotoxicity against human IGROV1 cells assessed as cell growth at 10 uM after 48 hrs by sulforhodamine B assay
EKVX = experiment: Cytotoxicity against human EKVX cells assessed as cell growth at 10 uM after 48 hrs by sulforhodamine B assay
HCT-116 = experiment: Cytotoxicity against human HCT116 cells assessed as cell growth at 10 uM after 48 hrs by sulforhodamine B assay
SK-MEL-2 = experiment: Cytotoxicity against human SK-MEL-2 cells assessed as cell growth at 10 uM after 48 hrs by sulforhodamine B assay
HOP-62 = experiment: Cytotoxicity against human HOP62 cells assessed as cell growth at 10 uM after 48 hrs by sulforhodamine B assay
RPMI-8226 = experiment: Cytotoxicity against human RPMI8226 cells assessed as cell growth at 10 uM after 48 hrs by sulforhodamine B assay
SR = experiment: Cytotoxicity against human SR cells assessed as cell growth at 10 uM after 48 hrs by sulforhodamine B assay
NCI-H226 = experiment: Cytotoxicity against human NCI-H226 cells assessed as cell growth at 10 uM after 48 hrs by sulforhodamine B assay
OVCAR-3 = experiment: Cytotoxicity against human OVCAR-3 cells assessed as cell growth at 10 uM after 48 hrs by sulforhodamine B assay
K562 = experiment: Cytotoxicity against human K562 cells assessed as cell growth at 10 uM after 48 hrs by sulforhodamine B assay
CCRF-CEM = experiment: Cytotoxicity against human CCRF-CEM cells assessed as cell growth at 10 uM after 48 hrs by sulforhodamine B assay
HCC 2998 = experiment: Cytotoxicity against human HCC2998 cells assessed as cell growth at 10 uM after 48 hrs by sulforhodamine B assay
NCI-H23 = experiment: Cytotoxicity against human NCI-H23 cells assessed as cell growth at 10 uM after 48 hrs by sulforhodamine B assay
SNB-75 = experiment: Cytotoxicity against human SNB75 cells assessed as cell growth at 10 uM after 48 hrs by sulforhodamine B assay
MDA-MB-468 = experiment: Cytotoxicity against human MDA-MB-468 cells assessed as cell growth at 10 uM after 48 hrs by sulforhodamine B assay
MCF7 = experiment: Cytotoxicity against human MCF7 cells assessed as cell growth at 10 uM after 48 hrs by sulforhodamine B assay
KM12 = experiment: Cytotoxicity against human KM12 cells assessed as cell growth at 10 uM after 48 hrs by sulforhodamine B assay
DU-145 = experiment: Cytotoxicity against human DU145 cells assessed as cell growth at 10 uM after 48 hrs by sulforhodamine B assay
SW-620 = experiment: Cytotoxicity against human SW620 cells assessed as cell growth at 10 uM after 48 hrs by sulforhodamine B assay
OVCAR-8 = experiment: Cytotoxicity against human OVCAR8 cells assessed as cell growth at 10 uM after 48 hrs by sulforhodamine B assay
RXF 393 = experiment: Cytotoxicity against human RXF393 cells assessed as cell growth at 10 uM after 48 hrs by sulforhodamine B assay
T47D = experiment: Cytotoxicity against human T47D cells assessed as cell growth at 10 uM after 48 hrs by sulforhodamine B assay
HL-60(TB) = experiment: Cytotoxicity against human HL-60(TB) cells assessed as cell growth at 10 uM after 48 hrs by sulforhodamine B assay
SF-295 = experiment: Cytotoxicity against human SF295 cells assessed as cell growth at 10 uM after 48 hrs by sulforhodamine B assay
Hs-578T = experiment: Cytotoxicity against human Hs 578T cells assessed as cell growth at 10 uM after 48 hrs by sulforhodamine B assay
MDA-MB-435 = experiment: Cytotoxicity against human MDA-MB-435 cells assessed as cell growth at 10 uM after 48 hrs by sulforhodamine B assay
A498 = experiment: Cytotoxicity against human A498 cells assessed as cell growth at 10 uM after 48 hrs by sulforhodamine B assay
MOLT-4 = experiment: Cytotoxicity against human MOLT4 cells assessed as cell growth at 10 uM after 48 hrs by sulforhodamine B assay
SN12C = experiment: Cytotoxicity against human SN12C cells assessed as cell growth at 10 uM after 48 hrs by sulforhodamine B assay
LOX IMVI = experiment: Cytotoxicity against human LOXIMVI cells assessed as cell growth at 10 uM after 48 hrs by sulforhodamine B assay
HT-29 = experiment: Cytotoxicity against human HT-29 cells assessed as cell growth at 10 uM after 48 hrs by sulforhodamine B assay
786-0 = experiment: Cytotoxicity against human 786-0 cells assessed as cell growth at 10 uM after 48 hrs by sulforhodamine B assay
M14 = experiment: Cytotoxicity against human M14 cells assessed as cell growth at 10 uM after 48 hrs by sulforhodamine B assay
MDA-MB-231 = experiment: Cytotoxicity against human MDA-MB-231 cells assessed as cell growth at 10 uM after 48 hrs by sulforhodamine B assay
NCI-H460 = experiment: Cytotoxicity against human NCI-H460 cells assessed as cell growth at 10 uM after 48 hrs by sulforhodamine B assay
SF-539 = experiment: Cytotoxicity against human SF539 cells assessed as cell growth at 10 uM after 48 hrs by sulforhodamine B assay
UACC-257 = experiment: Cytotoxicity against human UACC257 cells assessed as cell growth at 10 uM after 48 hrs by sulforhodamine B assay
HCT-15 = experiment: Cytotoxicity against human HCT15 cells assessed as cell growth at 10 uM after 48 hrs by sulforhodamine B assay
OVCAR-5 = experiment: Cytotoxicity against human OVCAR5 cells assessed as cell growth at 10 uM after 48 hrs by sulforhodamine B assay
SNB-19 = experiment: Cytotoxicity against human SNB19 cells assessed as cell growth at 10 uM after 48 hrs by sulforhodamine B assay
A549 = experiment: Cytotoxicity against human A549 cells assessed as cell growth at 10 uM after 48 hrs by sulforhodamine B assay
NCI-H322M = experiment: Cytotoxicity against human NCI-H322M cells assessed as cell growth at 10 uM after 48 hrs by sulforhodamine B assay
PC-3 = experiment: Cytotoxicity against human PC3 cells assessed as cell growth at 10 uM after 48 hrs by sulforhodamine B assay
UACC-62 = experiment: Cytotoxicity against human UACC62 cells assessed as cell growth at 10 uM after 48 hrs by sulforhodamine B assay
TK-10 = experiment: Cytotoxicity against human TK10 cells assessed as cell growth at 10 uM after 48 hrs by sulforhodamine B assay
ACHN = experiment: Cytotoxicity against human ACHN cells assessed as cell growth at 10 uM after 48 hrs by sulforhodamine B assay
UO-31 = experiment: Cytotoxicity against human UO31 cells assessed as cell growth at 10 uM after 48 hrs by sulforhodamine B assay
OVCAR-4 = experiment: Cytotoxicity against human OVCAR4 cells assessed as cell growth at 10 uM after 48 hrs by sulforhodamine B assay

Measured: Activity

CCCc1cc(=O)oc2c(C)c(OCc3nnc(S)o3)ccc12
inactive: all assays above
